Test results as given in patent US20110172230A1, “UREA COMPOUND OR SALT THEREOF” (priority 2006, published 2011).
Counter-ions that a name gives are not always drawn.

Tests used:
FAAH = target: T1, FAAH (Rattus norvegicus, UniProt P97612); assay: Screening for an FAAH activity inhibiting substance using a rat brain homogenate (IC50); format: biochemical; details: radiolabeled anandamide substrate, 1 hour
T1 construct: the rat brain homogenate was diluted so that its protein concentration could be 60 μg/ml, thereby preparing an enzyme solution; from tissue; host or cells: rat cerebrum (SD-line male rat, 10 weeks) homogenate, 15000 x g pellet
T1 sequence (P97612 1-579): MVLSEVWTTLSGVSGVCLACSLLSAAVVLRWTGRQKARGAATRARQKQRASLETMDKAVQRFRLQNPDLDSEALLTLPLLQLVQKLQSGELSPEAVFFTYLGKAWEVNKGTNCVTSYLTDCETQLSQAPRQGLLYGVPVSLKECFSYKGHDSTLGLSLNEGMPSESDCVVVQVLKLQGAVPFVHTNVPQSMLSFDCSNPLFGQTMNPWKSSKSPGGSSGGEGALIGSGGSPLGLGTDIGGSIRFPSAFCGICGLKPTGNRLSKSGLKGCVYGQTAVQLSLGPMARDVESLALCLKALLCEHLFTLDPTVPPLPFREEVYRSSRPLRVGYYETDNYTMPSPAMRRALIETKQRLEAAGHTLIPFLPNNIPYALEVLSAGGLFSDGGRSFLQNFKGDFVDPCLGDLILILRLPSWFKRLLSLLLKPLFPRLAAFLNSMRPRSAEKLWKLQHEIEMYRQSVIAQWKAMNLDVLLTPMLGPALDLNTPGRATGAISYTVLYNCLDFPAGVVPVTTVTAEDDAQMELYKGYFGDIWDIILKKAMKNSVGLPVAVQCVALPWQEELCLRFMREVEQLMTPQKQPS
Method: Screening for an FAAH Activity Inhibiting Substance Using a Rat Brain Homogenate
(1) Preparation of a Rat Brain Homogenate
The head of a 10-week-old SD-line male rat (Japan SLC., Inc.) was cut off, and its cerebrum was taken out and weighed. Five times by volume its weight of an ice-cooled buffer (50 mM Tris-HCl (pH 7.4), 0.32 M sucrose) was added, and this was homogenized with a homogenizer in ice to give a uniform suspension. This was centrifuged (1500×g, 4° C., 15 minutes), and the supernatant was again centrifuged (15000×g, 4° C., 20 minutes) to obtain a precipitate. Further, using an ultrasonic wave generator (UR-20P, TOMY SEIKO CO., LTD.), this was ultrasonicated (power dial 4) for 5 seconds. The protein concentration of the resulting homogenate was measured according to a dye-coupling method (protein assay CBB solution, NACALAI TESQUE, INC.). Using a buffer (50 mM Tris-HCl (pH 8.0), 1 mM EDTA, 0.1 mg/ml BSA, 100 mM NaCl), the rat brain homogenate was diluted so that its protein concentration could be 60 μg/ml, thereby preparing an enzyme solution.
(2) Screening for an FAAH Activity Inhibiting Substance
A substrate solution was prepared, comprising 2 μCi/ml radiolabeled anandamide (Anandamide [ethanolamine 1-^3H] (American Radiolabeled Chemical)), 8 μM anandamide (Funakoshi), 50 mM Tris-HCl (pH 8.0), 1 mM EDTA, 0.1 mg/ml BSA and 100 mM NaCl. Test substance solutions were prepared, dissolved in DMSO to have a concentration from 1 nM to 100 μM. 50 μl of the substrate solution and 1 μl of the test substance solution were added to 50 μl of the enzyme solution, and left for 1 hour. As a control, DMSO was added in place of the test substance solution. To this, added was 200 μl of a 1:1 (ratio by volume) solution of chloroform/methanol, followed by vortexing. This was centrifuged (15000 rpm, 2 minutes), whereby the decomposed product ethanolamine (ethanolamine 1-^3H) was separated in the upper layer (water/methanol layer) and the unreacted radiolabeled anandamide (Anandamide [ethanolamine 1-^3H]) was in the lower layer (chloroform layer). 30 μl of the upper layer was transferred into a 96-well organic solvent-resistant white microplate (PicoPlate-96; Perkin Elmer, Inc.), 150 μl of Microscint-20 (Perkin Elmer, Inc.) was added thereto, and this was measured with a microplate scintillation counter (TopCount™; Beckman Coulter, Inc.). As compared with the control, the substance that gave a decreased value was selected as an FAAH activity-inhibiting substance.
(3) Measurement of the IC50 Value of the FAAH Activity Inhibiting Substance
The compound was dissolved in DMSO to have a varying concentration from 1 nM to 100 μM to prepare test substance solutions. According to the method mentioned above, the compound was analyzed for its influence on FAAH activity. As a control, DMSO was used. A measured value of a case where a buffer (50 mM Tris-HCl (pH 8.0), 1 mM EDTA, 0.1 mg/ml BSA, 100 mM NaCl) was reacted in place of the enzyme solution was subtracted from every measured value. Based on the measured value of the control, 100%, the IC50 value of the test substance was determined. Furthermore, Ex represents the Example No. as denoted below.

[1] = test system: cyclophosphamide (CPA)-induced urinary frequency; assay: Effect of compound on cyclophosphamide (CPA)-induced urinary frequency in a rat (effective bladder capacity); format: in vivo; details: CPA (100 mg/kg i.p.)-treated Wistar female rats, p.o.; for effective dose in oral administration: effective bladder capacity over 1 hour
Method: Effect of Compound on Cyclophosphamide (CPA)-Induced Urinary Frequency in a Rat
Compounds were tested for their bladder irritation-relieving effect, using pathologic models. It is known that systemic administration of cyclophosphamide (CPA) converts the compound into its metabolite, acrolein, and, as existing in urine, this injures the bladder mucosa. In rats, CPA administration induces bladder pain or urinary frequency accompanied by hemorrhagic cystitis, and therefore using such rats, it is possible to evaluate the potency of drug for these symptoms. In this experiment, used were 9-week-old Wistar female rats (Charles River). CPA (100 mg/kg) was intraperitoneally administered to the rats, and after 2 days, the rats were tested. A test compound was orally administered (p.o.) to the rats; and after 15 minutes, distilled water (30 ml/kg) was forcedly orally administered thereto. The rats were put in a metabolic cage, and the weight of their urine was continuously measured for 1 hour. The overall urine amount was divided by the overall urination frequency, and the effective bladder capacity was thus calculated. […] In oral administration, the effective doses of compounds of Examples 155 and 210 were 10 mg/kg and 3 mg/kg, respectively.

| IC50 (FAAH) | SMILES | effect on effective bladder capacity / urinary frequency [1] | effective dose in oral administration [1] |
| --- | --- | --- | --- |
| 5 nM | O=C(Nc1cnccn1)N1CCN(C(=O)c2ccnc(OCCC3CCCCC3)c2)CC1 [Example 38, 4-[2-(2-cyclohexylethoxy)isonicotinoyl]-N-pyrazin-2-ylpiperazine-1-carboxamide] | – | – |
| 3.3 nM | O=C(Nc1cnccn1)N1CCN(C(=O)c2cccc(OCCC3CCCCC3)c2)CC1 [Example 210] | increased the reduced effective bladder capacity, and relieved the condition of urinary frequency | 3 mg/kg |
| 42 nM | CN(CCC1CCCCC1)c1ccc(C(=O)N2CCN(C(=O)Nc3cccnc3)CC2)cc1 [Example 334] | – | – |

Continued, compound first:

| SMILES | IC50 (FAAH) | effect on effective bladder capacity / urinary frequency [1] | effective dose in oral administration [1] |
| --- | --- | --- | --- |
| O=C(Nc1cccnc1)N1CCN(Cc2ccnc(OCCC3CCCCC3)c2)CC1 [Example 30, 4-{[2-(2-cyclohexylethoxy)pyridin-4-yl]methyl}-N-pyridin-3-ylpiperazine-1-carboxamide trihydrochloride] | 30 nM | – | – |
| O=C(Nc1ncccn1)N1CCN(C(=O)c2cccc(OCCC3CCCCC3)c2)CC1 [Example 155] | 25 nM | increased the reduced effective bladder capacity, and relieved the condition of urinary frequency | 10 mg/kg |
| COCC(=O)NC(=O)N1CCN(Cc2cccc(OCCC3CCCCC3)c2)CC1 [Example 439] | 25 nM | – | – |
